Experimental data: US7172865B2, “Rapid and sensitive assay for the detection and quantification of coregulators of nucleic acid binding factors” (Saint Louis University, priority 2001, dated 2007)

Key:
[1] = biological target: T1, TrpR (Escherichia coli, UniProt P0A881); assay: tryptophan biosensor, fluorescence intensity; type: binding; conditions: 250 nM and 300 nM components, 2 hrs
Protocol: Increasing concentrations of tryptophan were added to a mixture containing 250 nM fluorescein labeled TrpR-specific first nucleic acid component and 300 nM dabcyl-labeled Trp-specific second nucleic acid component.

[2] = biological target: T1, TrpR; assay: tryptophan biosensor, fluorescence polarization; type: binding; conditions: 4 nM fluorescein-labeled 25 bp duplex
Protocol: Increasing concentrations of tryptophan were added to a mixture containing 4 nM fluorescein-labeled 25 bp DNA duplex containing consensus TrpR binding sites.
To illustrate that a different detection methodology for measuring the formation of nucleic acid-protein complexes could be accommodated to the biosensor design shown in FIG. 20, a biosensor for tryptophan was prepared wherein only one nucleic acid component was attached to a detectable label. According to this particular embodiment of the invention, fluorescence polarization of fluorochrome-labeled DNA component containing a TrpR cognate binding site was used to measure tryptophan-induced formation of a TrpR-nucleic acid complex (FIG. 23).

[3] = tested on: LacR binding site split between LAC1/LAC4 and LAC2/LAC3; assay: detection of Lac repressor protein by fluorescence quenching
From the text: The LAC1 oligonucleotide (SEQ ID NO:12) was hybridized with the LAC4 oligonucleotide (SEQ ID NO:15) to generate the LAC1/LAC4 construct and the LAC2 oligonucleotide (SEQ ID NO:13) was hybridized with the LAC3 oligonucleotide (SEQ ID NO:14) to generate the LAC2/LAC3 construct.

[4] = biological target: LacR protein (Escherichia coli, UniProt P03023); assay: IPTG biosensor; type: binding; conditions: 50 nM and 60 nM components, 2 hrs
Protocol: FIG. 24 describes a biosensor for detecting IPTG. Increasing concentrations of IPTG were added to a mixture containing 50 nM fluorescein-labeled LacR-specific first nucleic acid component and 60 nM dabcyl-labeled Lac-specific second nucleic acid component.
FIG. 24 illustrates a biosensor design using a nucleic acid binding factor for which the coregulator reduced its affinity for a specific nucleic acid element. In this case, the coregulator will induce the dissociation of the protein-nucleic acid complex and its detection could be accomplished by coregulator-dependent disappearance of protein-nucleic acid complex. […] In the absence of IPTG (a coregulator for LacR) the LacR protein bound to its labeled cognate nucleic acid element resulting in quenching of the fluorescence signal.

[5] = biological target: CAP protein (Escherichia coli, UniProt P0ACJ8); conditions: cited from earlier work
[6] = tested on: TrpR binding site split between TRP1/TRP4 and TRP2/TRP3; conditions: 250 nM TRP1/TRP4 and 300 nM TRP2/TRP3, 4 mM tryptophan
Protocol: The TRP1 oligonucleotide (SEQ ID NO:16) was hybridized with the TRP4 oligonucleotide (SEQ ID NO:19) to generate the TRP1/TRP4 construct and the TRP2 oligonucleotide (SEQ ID NO:17) was hybridized with the TRP3 oligonucleotide (SEQ ID NO:18) to generate the TRP2/TRP3 construct. For the hybridization, the appropriate oligonucleotides were mixed at 10 μM concentration in 100 μl of 50 mM Tris/HCl (pH 8.0), 100 mM NaCl, 1 mM EDTA, heated for 1 min at 95° C. and then cooled to 25° C. for 1 hr. All subsequent fluorescence measurements were performed at 15° C. in 10 mM potassium phosphate (pH 7.6), 50 mM NaCl, 0.1 mM EDTA, 4mM tryptophan, 10% glycerol, 0.01% sodium azide and 1.0 mg/ml BSA. […] The duplexes contain a TrpR binding site (underlined sequence) split between each of the two double stranded constructs.
The fluorescence spectra of 250 nM TRP1/TRP4 and 300 nM TRP2/TRP3 were recorded in the absence of TrpR (FIG. 16A, curve 1) and in the presence of varying amounts of TrpR in a range from 0–800 nM (FIG. 16A, curves 2–5). ).

Chain of CAP protein (P0ACJ8 2-210): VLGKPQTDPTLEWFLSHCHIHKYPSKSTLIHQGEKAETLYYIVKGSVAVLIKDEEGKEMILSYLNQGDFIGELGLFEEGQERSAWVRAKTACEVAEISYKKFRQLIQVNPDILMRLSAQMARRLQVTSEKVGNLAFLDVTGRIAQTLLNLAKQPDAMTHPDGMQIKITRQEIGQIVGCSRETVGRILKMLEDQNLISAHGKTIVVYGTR

## N[C@@H](Cc1c[nH]c2ccccc12)C(=O)O [tryptophan]
[1]
  fluorescence signal response to tryptophan: large fluorescence signal change
[2]
  fluorescence polarization response to tryptophan: change of fluorescence polarization signal proportional to tryptophan concentration

## CC(C)S[C@@H]1O[C@H](CO)[C@H](O)[C@H](O)[C@H]1O [IPTG, reference compound]
[3]; 5 mM IPTG
  effect on LacR nucleic acid binding activity: reduces its nucleic acid binding activity
[4]
  fluorescence signal response to IPTG: IPTG-dependent increase in fluorescence signal

## Nc1nc2c(ncn2[C@@H]2O[C@@H]3COP(=O)(O)O[C@H]3[C@H]2O)c(=O)[nH]1 [cGMP]
[5]; CAP alone
  affinity of CAP for the cyclic nucleotide: micromolar affinity
[5]
  change of affinity of CAP for the nucleotide in the presence of DNA containing a CAP binding site: remains unchanged

B1: LacR: Lac repressor protein, nucleic acid binding reduced by IPTG (protein, UniProt P03023 1-360, looked up)
Lactose operon repressor: MKPVTLYDVAEYAGVSYQTVSRVVNQASHVSAKTREKVEAAMAELNYIPNRVAQQLAGKQSLLIGVATSSLALHAPSQIVAAIKSRADQLGASVVVSMVERSGVEACKAAVHNLLAQRVSGLIINYPLDDQDAIAVEAACTNVPALFLDVSDQTPINSIIFSHEDGTRLGVEHLVALGHQQIALLAGPLSSVSARLRLAGWHKYLTRNQIQPIAEREGDWSAMSGFQQTMQMLNEGIVPTAMLVANDQMALGAMRAITESGLRVGADISVVGYDDTEDSSCYIPPLTTIKQDFRLLGQTSVDRLLQLSQGQAVKGNQLLPVSLVKRKTTLAPNTQTASPRALADSLMQLARQVSRLESGQ
[3]; 50 nM LAC1/LAC4 plus LAC2/LAC3
  protein concentration at saturation of quenching: approximately 150 nM
[6]
  protein concentration at saturation of quenching: approximately 150 nM
